In US20100204152A1, “USE OF GLUTEN EXORPHIN C : AS A THERAPEUTIC AGENT” (priority 2007, published 2010):
Where no end group is shown, it is not given here.

How the values were obtained:
[1] = test system: HCMV strain AD169; assay: HCMV plaque formation assay in MRC-5 cells; conditions: for inhibition of HCMV plaque formation as compared to the virus control: 10 micrograms per ml, 7-10 days
[2] = test system: HUVEC; assay: Endothelial tube formation assay; assay type: cell-based, human; conditions: 10 micrograms per ml, 20 hours, average tubule length
Source text: Positive control was vehicle only.

[3] = test system: spleen cells; assay: Th1/Th2 cytokine profiling assay; assay type: cell-based, Balb/c mice; conditions: 10 micrograms per ml; Ovalbumin restimulation; 72 hours; supernatant
Source text: The Balb/c mice (originated in 1923, it is a popular strain and is used in many different research disciplines. Also classified as an inbred from the production of 20 or more successive brother-sister matings, the Balb/c mouse is albino and small in size) were immunized on Days 1, 15, and 29 with Ovalbumin (Ovalbumin is the main protein found in egg white, commonly used to stimulate an immunological reaction in test animals) in PBS (5 micrograms/injection). On day 50, spleens of the mice were harvested (3 weeks after last boost with Ovalbumin). Cells were cultured (2×10^5/well in triplicate) and incubated with culture medium or test peptides—10 micrograms per ml—for 30 min. Thereafter, additional Ovalbumin was added to the cells at 10 micrograms/ml for in vitro restimulation of the cells. 72 hours later, cell supernatants were harvested and assayed using the Becton Dickinson Mouse Th1/Th2 Cytokine CBA Kit. This kit can be used to measure Interleukin-2 (IL-2), Interleukin-4 (IL-4), Interleukin-5 (IL-5), Interferon-γ (IFN-γ), and Tumor Necrosis Factor-α (TNF-α) protein levels in a single sample. The kit performance has been optimized for analysis of physiologically relevant concentrations (pg/ml levels) of specific cytokine proteins in tissue culture supernatants and serum samples.

[4] = test system: RAW 264.7 cells; assay: Phagocytosis assay; assay type: cell-based, mouse; conditions: 10 micrograms per ml, Fluorescein-labeled Escherichia coli, flow cytometry
[5] = test system: Primary Human endothelial cells (HUVEC); assay: Endothelial cell migration assay; assay type: cell-based; conditions: 10 micrograms per ml, 22 hours
Procedure: Thereafter, designated concentration of testing peptides—10 micrograms per ml—was added in duplicate wells.

[6] = test system: LPS-induced TNF-alpha production in human macrophages; assay: TNF alpha production assay; assay type: cell-based; conditions: 10 micrograms per ml; 30 min preincubation; lipopolysaccharide 200 ng/ml; overnight; ELISA
Source text: Not stimulated macrophages served as negative background control.

[7] = test system: hepatitis B virus (HBV) ayw strain in HepG2-2.2.15 cells; assay: HBV experimental assay system (secreted HBV DNA, TaqMan PCR); assay type: cell-based; conditions: 10 micrograms per ml, six days, HBV DNA by TaqMan PCR
Source text: HepG2-2.2.15 is a stable cell line containing the hepatitis B virus (HBV) ayw strain genome (ATCC Cat. No. CRL-11997). Antiviral compounds blocking any late step of viral replication such as transcription, translation, pregenome encapsidation, reverse transcription, particle assembly and release can be identified and characterized using this cell line. In this assay, an active compound will reduce the production of secreted HBV from cells, measured by utilizing real time quantitative PCR (TaqMan) assay to directly and accurately measure HBV DNA copies.
HepG2-2.2.15 cells were plated in 96-well microtiter plates. After 16-24 hours the confluent monolayer of HepG2-2.2.15 cells was washed and the medium was replaced with complete medium containing test peptides—10 micrograms per ml—in duplicate. […] Six days following the initial administration of the peptides, the cell culture supernatants was collected, treated with pronase and DNAse and then used in a real-time quantitative TaqMan PCR assay. The PCR-amplified HBV DNA was detected in real-time by monitoring increases in fluorescence signals that result from the exonucleolytic degradation of a quenched fluorescence probe molecule that hybridizes to the amplified HBV DNA. […] Antiviral activity was calculated from the reduction in HBV DNA levels (% virus control). […]

Compound | antiviral activity of positive control compound (HCMV) ([1]; positive control) | inhibition of HCMV plaque formation as compared to the virus control [1] | inhibition of the tube formation of endothelial cells [2] | IFNγ spleen cells; TH1 response (% of control) [3] | IL-2 spleen cells (% of control) [3] | IL-4 spleen cells; TH2 response (% of control) [3] | IL-5 spleen cells; TH2 response (% of control) [3] | TNF-a spleen cells; TH1 response (% of control) [3] | effect on the phagocytic activity of murine macrophages (increase) [4] | inhibition of the migration of human endothelial cells [5] | inhibition of the LPS-induced TNF-alpha production in human macrophages [6] | inhibition of HBV replication as compared to the virus control infection [7]
Nc1nc(O)c2ncn(COC(CO)CO)c2n1 [Ganciclovir, reference compound] | expected levels of antiviral activity | – | – | – | – | – | – | – | – | – | – | –
AVPYPQR [peptide 1] | – | did not inhibit | 18% | 52.4 % of control | 55.7 % of control | 0.0 % of control | 53.0 % of control | 86.6 % of control | 22.9% | 35% | 22.4% | no effect
Tyr-Pro-Ile-Ser-Leu-OH (YPISL-OH) [peptide 2] | – | did not inhibit | 100% | 53.9 % of control | 124.0 % of control | 94.1 % of control | 86.6 % of control | 126.2 % of control | no inhibitory or activating effect | – | did not induced or inhibit | 41.4%
